ChEMBL document CHEMBL1133145, “Novel photoreactive cinnamic acid analogues to elucidate phenylalanine ammonia-lyase” (Bioorg Med Chem Lett, 2000)

Test: Inhibitory activity against Phenylalanine Ammonia-lyase (PAL)

Ki [µM] | Structure (SMILES)
240 | COc1cc(C2(C(F)(F)F)N=N2)ccc1/C=C/C(=O)O
520 | O=C(O)/C=C/c1ccc(C2(C(F)(F)F)N=N2)cc1OCCOCCOCCNC(=O)CCCC[C@@H]1SCC2NC(=O)NC21 (some centres not stated)
